# Assay results published in publication PMC11996864, “A small-molecule inhibitor of BCL10-MALT1 interaction abrogates progression of diffuse large B cell lymphoma” (The Journal of Clinical Investigation, 2025).
# Several values for one entry are separate records, joined by “and”; a condition that tells them apart may be missing. Equal values may be shown once. Entries after “also recorded” stand apart in the source; their conditions may differ. Read-outs that look alike come from different tables or passages of the source.
# Experiments:
# TMD8 cells [1] = assay: Apoptosis, annexin V/SYTOX Blue flow cytometry; assay type: cell-based, human
# Description: (§1) Cell proliferation, viability, and apoptosis assays. […]
# The percentages of cells in early and late apoptosis were combined for
# quantification. For CellTrace Violet, CellTiter-glo, and Annexin V apoptosis assays, cell were
# cultured in media with 50% of the usual serum. […]
# OCI-Ly3 cells = assay: Apoptosis, annexin V/SYTOX Blue flow cytometry; assay type: cell-based, human
# Description: as §1
# (§2) Annexin V Alexa 488
# (§3) (ThermoFisher Scientific, Cat# A13201) and SYTOX Blue Dead Cell (ThermoFisher Scientific, Cat# S34857) stains were used to detect apoptosis in DLBCL cells after treatment with 1 µM compounds for 8 days in TMD8 and OCI-Ly1 and for 5 days in OCI-Ly3 cells, then analyzed with flow cytometry. The percentages of cells in early and late apoptosis were combined for quantification. For CellTrace Violet, CellTiter-glo, and Annexin V apoptosis assays, cell were cultured in media with 50% of the usual serum. […]
# human primary T cells = assay: Human T cell apoptosis, annexin V; assay type: cell-based
# Description: as §2
# as §3, with “for” for “for quantification. For CellTrace Violet, CellTiter-glo, and Annexin V apoptosis assays, cell were cultured in media with 50% of the usual serum.”
# quantification. […]
# Human T cell apoptosis. Human CD4/CD8 T cells were isolated from blood using Pan T Cell Isolation Kit (Miltenyi Biotec, Cat# 130-096-535), IRB exemption STUDY21080109. T cells were incubated with DynabeadsTM Human T-Activator CD3/CD28 (Thermo Fisher Scientific, Cat# 11131D) for 72 hours after which cells were grown in RPMI containing 10% FBS and IL-2 (Peprotech, Cat# 200-02). T cells were treated with M1i-124 (1 µM) or DMSO control with media change/drug treatment every 2-4 days. Apoptosis was evaluated on day 6 as described previously except that annexin V 647 was utilized (Invitrogen, A23204). Data is from 3 independent donors. […]
# CYP1A2 = target: T1, CYP1A2 (Homo sapiens, UniProt P05177); assay: Reversible CYP inhibition in human liver microsomes; assay type: in vitro ADME; conditions: read-out: Direct inhibition (IC50) CYP1A2
# T1 construct: from tissue; host or cells: pooled, mixed-gender human liver microsomes
# T1 sequence (P05177 whole entry): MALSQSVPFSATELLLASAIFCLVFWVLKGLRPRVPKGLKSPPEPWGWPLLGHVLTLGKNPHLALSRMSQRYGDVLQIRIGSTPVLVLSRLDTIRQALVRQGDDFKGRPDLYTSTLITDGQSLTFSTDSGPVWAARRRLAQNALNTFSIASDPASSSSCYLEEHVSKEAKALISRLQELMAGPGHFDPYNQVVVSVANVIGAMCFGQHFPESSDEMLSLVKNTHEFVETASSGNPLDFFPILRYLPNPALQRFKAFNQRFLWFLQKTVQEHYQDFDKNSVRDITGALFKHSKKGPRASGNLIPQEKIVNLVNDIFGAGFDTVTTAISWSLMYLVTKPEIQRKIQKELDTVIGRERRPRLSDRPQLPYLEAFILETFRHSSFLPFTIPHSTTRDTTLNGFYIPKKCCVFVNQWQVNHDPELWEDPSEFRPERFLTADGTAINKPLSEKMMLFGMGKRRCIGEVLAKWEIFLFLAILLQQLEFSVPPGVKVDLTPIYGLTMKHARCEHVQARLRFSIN
# Description: (§4) Pharmacokinetic and cytochrome P450 inhibition studies. Studies were performed with the assistance of Touchstone Biosciences (Plymouth Meeting, Pennsylvania). […]
# (§5) For reversible CYP […]
# (§6) inhibition studies, different concentrations of M1i-124 were added to 0.2 mg/ml pooled, mixed-gender human liver microsomes (HLM). Each CYP450 isoform-specific probe substrate (CYP1A2, CYP2C9, CYP2C19, CYP2D6, and CYP3A4) was incubated individually with HLM and M1i-124 or corresponding positive control inhibitor (Phenacetin, Tolbutamaide, S-Mephenytoin, Dextromethorphan, Midazolam, and Testosterone). Samples were analyzed for metabolites of the probe substrates by LC-MS/MS at each of the test compound concentrations. A decrease in the formation of the metabolites compared to vehicle control was used to calculate the […]
# CYP2C19 = target: T2, CYP2C19 (Homo sapiens, UniProt P33261); assay: as above; assay type: in vitro ADME; conditions: read-out: Direct inhibition (IC50) CYP2C19
# T2 construct: from tissue; host or cells: pooled, mixed-gender human liver microsomes
# T2 sequence (P33261 whole entry): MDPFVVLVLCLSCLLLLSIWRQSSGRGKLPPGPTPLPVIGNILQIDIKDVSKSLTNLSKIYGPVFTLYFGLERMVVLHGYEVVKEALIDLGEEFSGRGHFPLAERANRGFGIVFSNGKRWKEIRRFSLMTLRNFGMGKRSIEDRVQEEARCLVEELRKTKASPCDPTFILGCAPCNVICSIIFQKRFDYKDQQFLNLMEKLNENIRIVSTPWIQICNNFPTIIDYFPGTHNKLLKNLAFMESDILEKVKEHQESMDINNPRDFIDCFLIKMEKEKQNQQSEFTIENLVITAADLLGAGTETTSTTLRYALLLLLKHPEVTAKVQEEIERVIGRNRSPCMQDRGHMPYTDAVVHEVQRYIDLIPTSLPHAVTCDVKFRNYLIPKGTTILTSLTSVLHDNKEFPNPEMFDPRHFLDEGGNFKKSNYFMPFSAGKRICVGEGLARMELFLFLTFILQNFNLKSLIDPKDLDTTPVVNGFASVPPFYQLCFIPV
# Description: as §4, §5, §6
# CYP2C9 = target: T3, CYP2C9 (Homo sapiens, UniProt P11712); assay: as above; assay type: in vitro ADME; conditions: read-out: Direct inhibition (IC50) CYP2C9
# T3 construct: from tissue; host or cells: pooled, mixed-gender human liver microsomes
# T3 sequence (P11712 whole entry): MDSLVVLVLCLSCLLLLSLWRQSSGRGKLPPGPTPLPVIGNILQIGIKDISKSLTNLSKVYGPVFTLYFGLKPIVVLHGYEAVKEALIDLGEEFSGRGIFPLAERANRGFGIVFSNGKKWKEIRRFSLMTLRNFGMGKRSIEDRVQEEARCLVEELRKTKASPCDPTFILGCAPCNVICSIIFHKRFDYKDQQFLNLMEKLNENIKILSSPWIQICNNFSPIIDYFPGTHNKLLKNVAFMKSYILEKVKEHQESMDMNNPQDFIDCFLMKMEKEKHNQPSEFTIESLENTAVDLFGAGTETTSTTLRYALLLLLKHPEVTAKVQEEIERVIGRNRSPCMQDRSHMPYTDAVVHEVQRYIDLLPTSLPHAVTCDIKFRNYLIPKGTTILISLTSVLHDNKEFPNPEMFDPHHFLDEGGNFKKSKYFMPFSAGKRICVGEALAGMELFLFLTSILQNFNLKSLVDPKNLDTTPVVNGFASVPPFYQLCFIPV
# Description: as §4, §5, §6
# CYP2D6 = target: T4, CYP2D6 (Homo sapiens, UniProt P10635); assay: as above; assay type: in vitro ADME; conditions: read-out: Direct inhibition (IC50) CYP2D6
# T4 construct: from tissue; host or cells: pooled, mixed-gender human liver microsomes
# T4 sequence (P10635 whole entry): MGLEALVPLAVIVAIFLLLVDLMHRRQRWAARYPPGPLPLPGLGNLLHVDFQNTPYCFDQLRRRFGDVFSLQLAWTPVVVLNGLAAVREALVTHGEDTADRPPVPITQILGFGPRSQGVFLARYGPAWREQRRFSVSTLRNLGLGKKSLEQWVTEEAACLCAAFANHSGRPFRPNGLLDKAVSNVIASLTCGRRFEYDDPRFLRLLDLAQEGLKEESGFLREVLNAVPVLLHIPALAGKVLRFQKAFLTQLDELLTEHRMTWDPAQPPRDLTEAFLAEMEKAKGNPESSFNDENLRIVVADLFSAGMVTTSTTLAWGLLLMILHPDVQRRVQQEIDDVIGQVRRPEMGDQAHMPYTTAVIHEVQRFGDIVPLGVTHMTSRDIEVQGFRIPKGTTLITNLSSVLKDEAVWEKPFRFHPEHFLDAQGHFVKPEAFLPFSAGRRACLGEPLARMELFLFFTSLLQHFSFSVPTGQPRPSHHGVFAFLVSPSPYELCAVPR
# Description: as §4, §5, §6
# CYP3A4M = target: T5, CYP3A4M (Homo sapiens, UniProt P08684); assay: as above; assay type: in vitro ADME; conditions: read-out: Direct inhibition (IC50) CYP3A4M
# T5 construct: from tissue; host or cells: pooled, mixed-gender human liver microsomes
# T5 sequence (P08684 whole entry): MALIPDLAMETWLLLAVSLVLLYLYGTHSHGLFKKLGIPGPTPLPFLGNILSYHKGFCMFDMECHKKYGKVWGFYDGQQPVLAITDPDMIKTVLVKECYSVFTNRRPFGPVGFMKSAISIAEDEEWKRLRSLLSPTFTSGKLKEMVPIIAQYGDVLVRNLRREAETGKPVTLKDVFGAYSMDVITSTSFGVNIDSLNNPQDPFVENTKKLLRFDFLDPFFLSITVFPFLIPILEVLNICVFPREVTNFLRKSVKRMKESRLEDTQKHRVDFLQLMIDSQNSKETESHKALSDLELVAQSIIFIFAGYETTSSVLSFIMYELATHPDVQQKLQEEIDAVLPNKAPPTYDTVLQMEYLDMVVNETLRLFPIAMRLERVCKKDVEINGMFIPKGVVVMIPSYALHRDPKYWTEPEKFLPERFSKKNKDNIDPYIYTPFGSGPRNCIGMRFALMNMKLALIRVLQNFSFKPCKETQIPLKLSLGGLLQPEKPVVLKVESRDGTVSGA
# Description: as §4, §5, §6
# CYP3A4T = target: T6, CYP3A4T (Homo sapiens, UniProt P08684); assay: as above; assay type: in vitro ADME; conditions: read-out: Direct inhibition (IC50) CYP3A4T
# T6 construct: from tissue; host or cells: pooled, mixed-gender human liver microsomes
# T6 sequence (P08684 whole entry): as above
# Description: as §4, §5, §6
# TMD8 tumor xenografts = assay: NF-κB target gene mRNA in TMD8 tumor xenografts, qRT-PCR; assay type: in vivo, mouse
# Description: Total RNA extraction from the TMD8 tumor xenografts was performed using 80% TRIzol Reagent (Fisher Scientific, Cat# 15596026) and 20% Chloroform for tissue solubilization. After centrifugation, the supernatant was mixed with equal volume of 70% ETOH followed by RNA isolation using the RNeasy Plus Mini
# Kit. RNA was transcribed into cDNA using High-Capacity cDNA Reverse Transcription Kit (Applied Biosystems, Cat# 4368814) according to manufacturer’s instructions. RT-PCR was performed using TaqMan Universal PCR Master Mix (Applied Biosystems, Cat# 4304437) and run on a StepOnePlus Real-Time PCR machine (Applied Biosystems). The following probes from ThermoFisher Scientific were used for qRT-PCR: IL2 TaqMan probe Hs00174114, IL6 TaqMan
# TMD8 cells [2] = assay: CellTiter-Glo ATP viability; assay type: cell-based, human
# [3] = test system: IL-2 secretion from primary mouse splenocytes; assay: Secreted IL-2 ELISA, stimulated primary splenocytes; assay type: cell-based; conditions: Suppl Fig. 4B; for IL-2 protein level (% of control) / activity at 5 µM: 5 uM; for activity at 1 µM / activity at 5 µM: Mus musculus, Splenocyte, read-out: IL-2 protein level (% of control)
# [4] = 24-hour time point, result in words
structure (smiles),measurement,setting,value
O=S(=O)(NCc1ccc2c(c1)OCO2)c1ccc(Cc2ccc(S(=O)(=O)NCc3ccc4c(c3)OCO4)cc2)cc1 [M1i-124],% Apoptotic cells,"TMD8 cells [1]; TMD8, 1 μM, 6 days",84.2% and 72.1% and 76.6% and 77.4% and 72.4% and 73.5%
same,Annexin (% positivity),"TMD8 cells [1]; TMD8, individual replicates",78.2% and 93.8% and 81.35%
same,apoptosis of TMD8 cells,TMD8 cells [1]; result in words,induced significant apoptosis; also recorded: selectively induced apoptosis
same,apoptosis of OCI-Ly3 cells,"OCI-Ly3 cells; 1 μM, result in words",selectively induced apoptosis
same,Percent Apoptotic cells,OCI-Ly3 cells; OCI-Ly3,91.3% and 82.7% and 75% and 93.6% and 88.1% and 93.3% and 87.8% and 75.8%
same,Annexin (% positivity),"human primary T cells; human primary T cells, 1 µM, day 6",5.305% and 5.353% and 4.227%
same,apoptosis of human primary T cells,"human primary T cells; vs untreated control, result in words",no difference
same,IC50,CYP1A2,> 100 µM
same,IC50,CYP2C19,28 µM
same,IC50,CYP2C9,21 µM
same,IC50,CYP2D6,13 µM
same,IC50,CYP3A4M,28 µM
same,IC50,CYP3A4T,40 µM
same,IRF4 mRNA level in tumors,TMD8 tumor xenografts; [4],no effect
same,NFKBID mRNA level in tumors,TMD8 tumor xenografts; [4],no effect
same,NFKBIZ mRNA level in tumors,TMD8 tumor xenografts; [4],did reduce
same,TNFA mRNA level in tumors,TMD8 tumor xenografts; [4],did reduce
same,IL10 mRNA levels in tumors,"TMD8 tumor xenografts; 24 hours after last dose, result in words",not affected
same,IL6 mRNA level in tumors,"TMD8 tumor xenografts; 24 hours after last dose, vs DMSO, result in words",significant decrease
same,Gene expression by RT-PCR (normalized),TMD8 tumor xenografts; NFKBID,0.81 and 0.72 and 0.56 and 0.88 and 1.03 and 0.82 and 0.76 and 0.92
same,Percent cell viability (ATP luminescence),"TMD8 cells [2]; TMD8, M1i-124 (µM) 0.02",98.5399% and 121.237% and 91.8987%
same,Percent cell viability (ATP luminescence),"TMD8 cells [2]; TMD8, M1i-124 (µM) 0.05",110.558% and 93.9485% and 106.792%
same,Percent cell viability (ATP luminescence),"TMD8 cells [2]; TMD8, M1i-124 (µM) 0.1",120.312% and 100.889%
same,Percent cell viability (ATP luminescence),"TMD8 cells [2]; TMD8, M1i-124 (µM) 0.2",81.1675% and 99.7783% and 71.7208%
"CN1CCCC(CN2c3ccccc3Sc3ccccc32)C1 (stereo not drawn) [Mepazine, mepazine, reference compound]",IL-2 protein level (% of control),[3]; CD3/CD28 treated,22.2086 % of control and 29.3738 % of control
same,activity at 1 µM,[3]; CD3/CD28 treated,82.7%
same,activity at 5 µM,[3]; CD3/CD28 treated,15.6%
same,activity at 1 µM,[3]; PMA/Iono treated,83.3%
same,activity at 5 µM,[3]; PMA/Iono treated,22.3%
same,IL-2 protein level (% of control),[3]; PMA/Iono treated,17.095 % of control and 28.7342 % of control
